Test results reported in US12378193B2, “Anti-arrhythmicity agents” (The Regents of the University of California, priority 2014, dated 2025).

Legend:
[1] = tested on: HeLa cells; experiment: Mitochondria Ca2+ uptake assay in HeLa cells; format: cell-based; conditions: permeabilized cells, 1 μM efsevin, Rhod2
Method: HeLa cells were transfected with zebrafish VDAC2 using Lipofectamine™ 2000 (Invitrogen). 36 hrs after transfection, cells were loaded with 5 μM Rhod2-AM (Invitrogen), a Ca^2+ indicator preferentially localized in mitochondria, for 1 hour at 15° C. followed by a 30 min de-esterification period at 37° C. Subsequently, cells were permeabilized with 100 μM digitonin for 1 min at room temperature. Fluorescence changes in Rhod2 (ex: 544 nm, em: 590 nm) immediately after the addition of Ca^2+ (final free Ca^2+ concentration is calculated to be approximately 10 μM using WEBMAXC at http://web.stanford.edu/˜cpatton/webmaxcS.htm) were monitored in internal buffer (5 mM K-EGTA, 20 mM HEPES, 100 mM K-aspartate, 40 mM KCl, 1 mM MgCl2, 2 mM maleic acid, 2 mM glutamic acid, 5 mM pyruvic acid, 0.5 mM KH2PO4, 5 mM MgATP, pH adjusted to 7.2 with Trizma base) using a FLUOSTAR plate reader (BMG Labtech).

[2] = tested on: murine ventricular cardiomyocytes; experiment: Ca2+ imaging (transients, sparks, waves) in isolated cardiomyocytes; format: cell-based
Method: Murine ventricular cardiomyocytes were isolated as previously described (Reuter et al., 2004, J Physiol 554, 779-789). Cells were loaded with 5 μM fluo-4 AM in external solution containing: 138.2 mM NaCl, 4.6 mM KCl, 1.2 mM MgCl, 15 mM glucose, 20 mM HEPES for 1 hr and imaged in external solution supplemented with 2, 5 or 10 mM CaCl2). For the recording of Ca^2+ sparks and transients, the external solution contained 2 mM CaCl2. For Ca^2+ transients, cells were field stimulated at 0.5 Hz with a 5 ms pulse at a voltage of 20% above contraction threshold. For all measurements, efsevin was added 2 hours prior to the actual experiment. Images were recorded on a Zeiss LSM 5 Pascal confocal microscope. Data analysis was carried out using the Zeiss LSM Image Browser and ImageJ with the SparkMaster plugin (Picht et al., 2007, Am J Physiol Cell Physiol 293, C1073-1081). Cells were visually inspected prior to and after each recording. Only those recordings from healthy looking cells with distinct borders, uniform striations and no membrane blebs or granularity were included in the analysis.

[3] = tested on: zebrafish tremblor (tre) embryos; experiment: Restoration of coordinated cardiac contractions in tre embryos; format: in vivo
Method: (§1) VDAC2 mRNA and morpholino antisense oligos (5′-[…]-3′) (Genetools) (SEQ ID NO: 9) were injected into one-cell stage embryos collected from crosses of tre^tc318 heterozygotes. Cardiac performance was analyzed by visual inspection on 1 dpf. The tre mutant embryos were identified either by observing the fibrillation phenotype at 2-3 dpf or by genotyping as previously described (Langenbacher et al., 2005).
(§2) Chemicals from a synthetic library (Castellano et al., 2007, J Am Chem Soc 129, 5843-5845; Choi et al., 2011, Development 138, 1173-1181; Cruz et al., 2011, Proc Natl Acad Sci USA 108, 6769-6774) and from Biomol International LP were screened for their ability to partially or completely restore persistent heartbeat in tre embryos. 12 embryos collected from crosses of tre^tc318 heterozygotes were raised in the presence of individual compounds at a concentration of 10 μM from 4 hpf (Choi et al., 2011). Cardiac function was analyzed by visual inspection at 1 and 2 dpf. The hearts of tre^tc318 embryos manifest a chaotic movement resembling cardiac fibrillation with intermittent contractions in rare occasion (Ebert et al., 2005; Langenbacher et al., 2005). Compounds that elicit persistent coordinated cardiac contractions were validated on large number of tre mutant embryos and NCX1h morphants (>500 embryos).

[4] = tested on: NCX1hMO injected embryos; experiment: Restoration of coordinated cardiac contractions in NCX1h morpholino embryos; format: in vivo, zebrafish; conditions: for embryos with coordinated contractions: VDAC2^zfn/zfn
Method: as §1, §2

[5] = tested on: wild type zebrafish embryos; experiment: Cardiac performance (line-scan fractional shortening, heart rate) of wild type embryos; format: in vivo
Method: Movies of GFP-labelled myl7:GFP hearts were taken at 30 frames per second. Line-scan analysis was performed along a line through the atria or the ventricles of these hearts (Nguyen et al., 2009, Drug Discovery Today: Disease Models 5). Fraction of shortening was deduced from the ratio of diastolic and systolic width and heart rate was determined by beats per minute. Cardiac parameters were analyzed in tremblor^tc318 and VDAC2^LA2256 at 2 dpf.

[6] = paced at 0.5 Hz, % of vehicle-treated
[7] = efsevin treatment, NCX1MO embryos

Structure (SMILES): CCOC(=O)C1=CCN(S(=O)(=O)c2ccc(C)cc2)C1c1ccccc1 (centres unmarked) [efsevin]
- mitochondrial Ca2+ uptake after addition of Ca2+ [1]: increased mitochondrial Ca^2+ uptake
- spontaneous Ca2+ waves spanning more than half of the entire cell ([2]; 1 μM efsevin): approximately half
- spontaneous Ca2+ waves spanning more than half of the entire cell ([2]; 10 μM efsevin): further reduced
- spontaneous Ca2+ waves spanning more than half of the entire cell ([2]; 25 μM efsevin): almost entirely blocked
- decay phase of the single spark ([2]; % of vehicle-treated): 82.5±2.1%
- maximum spark amplitude ([2]; % of vehicle-treated): 101.6±2.5%
- total duration of the spark ([2]; % of vehicle-treated): 85.7±2%
- total width of the spark ([2]; % of vehicle-treated): 89.5±1.4%
- Ca2+ spark frequency ([2]; efsevin compared to vehicle-treated): 101.1±7.7%
- Ca2+ transient rate of decay [2, 6]: 82.8±4%
- Ca2+ transient time to peak [2, 6]: 95±3.9%
- Ca2+ transient amplitude ([2]; paced at 0.5 Hz, efsevin-treated as % of vehicle-treated): 98.6±4.5%
- Ca2+ release flux ([2]; sparks, % of vehicle-treated): 98.7±2.8%
- embryos with coordinated cardiac contractions ([3]; efsevin treated tre embryos): 71.2±8.8%
- embryos with coordinated contractions ([3]; efsevin treated tre embryos, VDAC1/2 knocked down simultaneously): 30.3±6.3%
- embryos with coordinated contractions ([3]; efsevin treated tre embryos, morpholino knockdown of VDAC1 (MO^VDAC1)): 46.9±10.7%
- embryos with coordinated contractions ([3]; efsevin treated tre embryos, morpholino knockdown of VDAC2 (MO^VDAC2)): 45.3±7.4%
- restoration of rhythmic contractions in tremblor embryos ([3]; tremblor embryos): restored rhythmic contractions in the majority of tremblor embryos
- embryos with coordinated cardiac contractions [4, 7]: 76.2±8.7%
- embryos with coordinated contractions [4, 7]: 54.1±3.6%
- embryos with coordinated contractions ([4]; efsevin treatment, VDAC1MO, NCX1MO embryos): 35.7±7.1%
- restoration of rhythmic contractions in NCX1hMO injected embryos ([4]; linker-attached compounds): retained their ability to restore rhythmic contractions
- cardiac performance of wild-type embryos ([5]; efsevin-treated wild-type embryo, 2 dpf): did not affect cardiac performance
- heart rate ([5]; efsevin-treated wild-type embryos): 123±3 bpm
- Atrial FS ([5]; wild type + efsevin, 48 hpf): 35±2%
- Ventricular FS ([5]; wild type + efsevin, 48 hpf): 39±1%
